Laboratory results as given in publication PMC11343458, “Extracellular proteolysis of tandemly duplicated pheromone propeptides affords additional complexity to bacterial quorum sensing” (PLOS Biology, 2024).
No end group written: not given here.

Tests used:
[1] = target: Rap^3T (Bacillus phage phi3T); test: SEC-MALS; Rap^3T at 1 mg/ml, 50 mM Hepes (pH 7), 150 mM NaCl; apo, or preincubated with 100 μm pheromone (SRGHTS or RRGHTA) with 10 μm pheromone in the mobile phase
Rap^BA3 = Rap^BA3 overexpression; cited from earlier work
Rap^3T = test: Microscale thermophoresis (MST) of peptide binding to Rap^3T; design: species or system Bacillus phage phi3T; details: MST
Procedure: Rap^3T was fluorescently labeled with NT-647 amine reactive dye from the Monolith NT Protein Labeling kit RED-NHS (NanoTemper Technologies) according to the manufacturer’s instructions. Briefly, 100 μm solution of the protein was mixed with 3× dye solution, incubated 30 min in dark, and then purified by gravity in a 5 ml size exclusion column equilibrated with dialysis buffer (20 mM Tris-HCl (pH 8), 250 mM NaCl) supplemented with 0.1% pluronic and 5% glycerol to remove free dye. Rap^105 was fluorescently labeled using His-Tag Labeling Kit RED-tris-NTA 2nd Generation. Briefly, 500 nM of protein was mixed with 5 μm dye in PBS supplemented with 0,02% of tween incubated in dark at room temperature for 30 min and centrifuged at 10,000 g for 10 min at 4°C, transferred to a fresh tube, and used in the assays immediately. Labeled proteins were used at a final optimized concentration of 20 nM in the case of Rap^3T and 250 nM in the case of Rap^105. For the measurements of EC50, a 16-point 2-fold serial dilution (ranged from 2 to 3 × 10^−5 μm) of the peptides were prepared in presence of the corresponding labeled Rap protein. After 15-min incubation at room temperature, samples were filled into standard Capillaries (K005, NanoTemper Technologies) and MST measurements were performed on a Monolith NT.115 (NanoTemper Technologies) in RED channel using 60% to 75% of LED excitation power and medium or high MST power for Rap^3T or Rap^105, respectively. […] Data analyses were performed with M.O. Affinity Analysis software (NanoTermper Technologies) applying cooperative (Hill coefficient) and non-cooperative (Kd model) models, with the first one yielding better fitting values.

[2] = system: WprA and Bpr proteases (B. subtilis supernatants); test: Kinetic (time course) maturation assay of Imat1^3T in 168, WprA and Bpr KO supernatants; format: biochemical, Bacillus subtilis; details: samples inactivated at different times, Rap^3T thermal shift
Description: Fig 2 Propeptide maturation of Phr^3T and Phr^105 propeptides. Thermal shift assay experiments for maturation effect of supernatants from B. subtilis 168 and WB800 strains in immature version of the pheromones codified in Phr^3T (a) and Phr^105 (e), mean values of triplicates are plotted, 3 standard deviations from negative control maturation (WB800 supernatant) are highlighted in red. Error bars mark from the minimum to maximum values observed in the triplicates. Thermal shift assays with supernatants from B. subtilis 168, WB800, and individual protease mutant strains in maturation of peptides Imat2^3T(b), Imat1^105 (f), Imat2^105 (g) and Imat3^105 (h), mean values of triplicates are plotted, 3 standard deviations from negative control maturation (WB800 supernatant) are highlighted in red. Error bars mark from the minimum to maximum values observed in the triplicates. (c) Thermal shift slopes of the effect of individual mutations of 8 protease genes on Imat1^3T peptide maturation. (d) Kinetic assays comparing Imat1^3T peptide maturation in 168 supernatant and supernatants of WprA and Bpr protease KO mutants, relative maturation was calculated as fluorescence of the peak corresponding with the mature pheromone divided by the fluorescence of the peak corresponding with the non-maturated pheromone. […]

[3] = system: extracellular proteases in supernatants of B. subtilis 168, WB800 and individual protease mutants; test: Peptide maturation assay with B. subtilis supernatants, read by Rap^3T thermal shift; format: biochemical, Bacillus subtilis; details: 100 μm peptide
Procedure: Overnight cultures of either B. subtilis strains 168, WB800, Δmpr, Δbpr, ΔaprE, Δepr, ΔwprA, Δvpr, ΔnprB, ΔnprE in GM1 media were diluted 1:20 into GM1 media and incubated at 37°C at 250 rpm. […] After incubation, reaction was stopped by incubation at 95°C for 5 min and sample was kept and used in Thermal Shift Assays (see before). In the kinetic assays, samples were inactivated at different times by incubation at 95°C for 5 min. Experiments were validated by experimental triplicates of 3 biological replicates.
The thermal shift assay was conducted in a CFX Opus Real-Time PCR system (Biorad). Samples of 20 μl containing 20× Sypro Orange (Sigma-Aldrich) and 50 μm of protein in a 20 mM Tris (pH 8) and 250 mM NaCl buffer or filtered supernatant in peptide maturation assays (see below) were loaded in 96-well PCR plates. In the cases where peptide interaction was analyzed, synthetic peptides at a final concentration of 100 μm were added to the assays. Samples were heated from 20 to 85°C in steps of 1 degree. Fluorescent intensity was plotted versus temperature and integrated with either CFX Opus Real-Time PCR automate model or GraphPad Prism software using a Boltzmann model to calculate melting temperatures.

[4] = target: Rap^105 labelled through its His tag (MST) (Bacillus phage phi105); test: MST; Rap^105 labelled with RED-tris-NTA on the His tag at 250 nM; peptide in a 16-point 2-fold dilution from 2 to 3 x 10^-5 μm; PBS with 0,02% tween; 15 min at room temperature; Hill model
[5] = target: T1, Rap^105 labelled through its His tag (MST) (Bacillus phage phi105); test: MST
T1 chain: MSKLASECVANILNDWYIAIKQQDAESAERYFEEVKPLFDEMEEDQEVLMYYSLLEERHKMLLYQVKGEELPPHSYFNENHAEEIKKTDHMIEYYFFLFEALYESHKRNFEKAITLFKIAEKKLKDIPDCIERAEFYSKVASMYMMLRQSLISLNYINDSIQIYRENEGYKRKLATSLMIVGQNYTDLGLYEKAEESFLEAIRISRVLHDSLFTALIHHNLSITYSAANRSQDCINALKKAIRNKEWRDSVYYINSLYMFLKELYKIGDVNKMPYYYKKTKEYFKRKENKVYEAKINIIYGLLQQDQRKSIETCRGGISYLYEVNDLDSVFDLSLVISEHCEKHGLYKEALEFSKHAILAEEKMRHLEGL

[6] = target: Rap^105 (Bacillus phage phi105); test: thermal shift assay; Sypro Orange, 50 μm protein, 100 μm synthetic peptide, 20 mM Tris (pH 8), 250 mM NaCl (or filtered supernatant in the maturation assays), heated from 20 to 85°C

Rap^3T (receptor)
stoichiometry N [1]: 2

RRGQT [peptide that relieves Rap^BA3 repression in previous work]
relief of Rap^BA3 repression of sporulation and competence (Rap^BA3): repression is relieved

RRGHTASIGFTDGHSYDIA [Imat1^3T]
binding to Rap^3T (MST), in words (Rap^3T): weak affinity | time course maturation with Δbpr supernatant [2]: fully mature the peptide at longer incubation times | time course maturation with ΔwprA supernatant [2]: minimal maturation levels even at these times | maturation by B. subtilis 168 supernatant (Rap^3T thermal shift) ([3]; 1 h room temperature in filtered supernatant (GM1, OD600 0.5), stopped 95°C 5 min): effectively processed | maturation by supernatants of individual protease mutants of B. subtilis 168 (Rap^3T thermal shift) ([3]; 1 h room temperature, 8 single protease mutants): the supernatants from the ΔwprA and Δbpr mutants showed 2 slopes | maturation by B. subtilis WB800 (protease-deficient) supernatant (Rap^3T thermal shift) ([3]; 1 h room temperature, strain mutant in nprE, nprB, aprE, epr, bpr, mpr, vpr, wrpA): no increase in Rap^3T stabilization was observed

B1: ERPVGT (peptide)
peptide: ERPVGT
EC50 [4]: 34 nM | EC50 [5]: 38.2 nM | stabilization of the denaturation temperature [6]: 9 degrees
